Assays:
Format in all cases: cell-based
[1] = system: HuH7; assay: CellTiter-Glo luminescent cell viability (proliferation) assay, HuH7; settings: inhibition of HuH7 (human hepatoma) proliferation, 48 hours incubation, 10% FCS
Procedure: (§1) To practically assess the impact of the thiazole-piperidine derivatives, e.g. derivatives of piperidinyl-thiazole carboxylic acid and/or piperidinyl thiazole carboxamide, in the treatment and/or prevention of diseases according to the invention, the inhibition of cell proliferation is determined by using a luminescent cell viability assay (CellTiter-Glo®; Promega, Madison, USA). The assay is based on the relation that the ATP content is directly proportional to the number of cells present in the culture. The CellTiter-Glo® assay is performed to measure the proliferation rate of human hepatoma (HuH7, PLC/PRF/5, Hep3B, SK-Hep1), human hepatoblastoma (HepG2), human colon carcinoma (CX-2), human breast cancer (SK-Br-3), human ovarian carcinoma (HeLa) and human pancreatic carcinoma (DAN-G) cell lines. […] In particular, the compound according to formula (1) wherein R^1 is 4-isopropoxycarbonylphenyl, R^2 is 3-indolylmethyl, R^3 is hydrogen, R^4 is hydrogen, n is zero, A is a single bond, B is carbonyl, and wherein the residue R^1NR^3CO is connected to the carbon atom bound to nitrogen of the thiazole ring (compound no. XI in Table 1) inhibits proliferation of the human cell lines HepG2 and Hep3B with 10.8 and 3.5 µM, respectively.
(§2) To determine the inhibition of cell proliferation a luminescent cell viability assay (CellTiter-Glo®; Promega, Madison, USA) is implemented. The assay is based on the relation that the ATP content is directly proportional to the number of cells present in the culture (Technical Bulletin No. 228 "CellTiter-Glo® Luminescent Cell viability Assay", Revised 2/04. Promeg, Madison, USA). The CellTiter-Glo® assay is performed to measure the proliferation rate of human hepatoma (HuH7, PLC/PRF/5, Hep3B, SK-Hep1), human hepatoblastoma (HepG2), human colon carcinoma (CX-2), human breast cancer (SK-Br-3), human ovarian carcinoma (HeLa) and human pancreatic carcinoma (DAN-G) cell lines. 3000 viable cells (viability ≥ 90%) are seeded in opaque-walled 96-well plates and incubated for 24 hours in DMEM, supplemented with 2 mM glutamin. Cell proliferation is stimulated by addition of FCS to a final concentration of 10% (v/v). Simultaneously the compounds (see Table 1 and 2) are added in a concentration range of 0 to 20 µM. Triplicates are measured for each concentration. Cells and compounds (see Table 1 and 2) are incubated for a period of 48 hours in a volume of 140 µl cell culture medium (10% (v/v) FCS, 2 mM Glutamin, DMEM). The compounds according to the invention are dissolved in 60% to 100% (v/v) DMSO at a concentration of 2 mM. The final DMSO concentration under assay conditions never exceeds 1% (v/v). Throughout the assay cells are kept in a humidified incubator (95% rH) at 37°C and 5% CO2.
(§3) The final cell number is determined after 48 hour of incubation. Therefore 140 µl CellTiter-Glo®Reagent is added in each well. The contents are mixed on an orbital shaker for 2 minutes at room temperature. After subsequent incubation for additional 10 minutes at room temperature the luminescence signal is recorded within 30 min. EC50 values are calculated using the four-parametric Hill equation (Sigma Plot). Control values are: • 1) 10% (v/v) FCS, 2 mM glutamin, DMEM -> maximum cell number • 2) 2 mM glutamin, DMEM -> initial cell number

[2] = system: HeLa; assay: CellTiter-Glo luminescent cell viability (proliferation) assay, HeLa; settings: Hela (human ovarian carcinoma [sic]) proliferation, 48 hours incubation, 10% FCS
Procedure: as §1, §2, §3

[3] = system: DAN-G; assay: CellTiter-Glo luminescent cell viability (proliferation) assay, DAN-G; settings: DAN-G (human pancreatic carcinoma) proliferation, 48 hours incubation, 10% FCS
Procedure: as §1, §2, §3

[4] = system: CX-2; assay: CellTiter-Glo luminescent cell viability (proliferation) assay, CX-2; settings: CX-2 (human colon carcinoma) proliferation, 48 hours incubation, 10% FCS
Procedure: as §1, §2, §3

[5] = system: SK-Br-3; assay: CellTiter-Glo luminescent cell viability (proliferation) assay, SK-Br-3; settings: Sk-Br-3 (human breast cancer) proliferation, 48 hours incubation, 10% FCS
Procedure: as §1, §2, §3

`O=C(Nc1cc(-c2ccccc2)n[nH]1)c1csc(C2CCN(C(=O)c3cc4ccccc4o3)CC2)n1` [XLIV] showed an EC50 ([1]; Homo sapiens, Huh-7, 48 h) of 2.53 µM.

Work on `Cn1nc(-c2ccccc2)cc1NC(=O)c1csc(C2CCN(C(=O)c3c(F)cccc3Cl)CC2)n1` [XLIX] yielded an EC50 ([1]; Homo sapiens, Huh-7, 48 h) of 3.03 µM.

`COc1ccc(CNC(=O)c2csc(C3CCN(C(=O)CC4C=Nc5ccccc54)CC3)n2)cc1` (centres unmarked) [XLI] showed an EC50 ([1]; Homo sapiens, Huh-7, 48 h) of 5.9 µM.

Compound `Cc1nc(C)c(C(=O)N2CCC(c3nc(C(=O)Nc4cc(-c5ccco5)n[nH]4)cs3)CC2)s1` [XLVIII] has an EC50 ([1]; Homo sapiens, Huh-7, 48 h) of 13.9 µM.

`O=C(NC1CCc2ccccc21)c1csc(C2CCN(C(=O)CC3C=Nc4ccccc43)CC2)n1` (centres unmarked) [XLVII] showed an EC50 [2] of 13.6 µM, an EC50 ([1]; Homo sapiens, Huh-7, 48 h) of 9.15 µM and an EC50 [3] of 9.7 µM. It also gave an EC50 [4] of 19.9 µM and an EC50 [5] of 11.2 µM.

In the case of `Cc1ccc(NC(=O)c2csc(C3CCN(C(=O)CC4C=Nc5ccccc54)CC3)n2)c(F)c1` (centres unmarked) [XLVI], the EC50 ([1]; Homo sapiens, Huh-7, 48 h) is reported as 4 µM.

`CN(NC(=O)c1csc(C2CCN(C(=O)CC3C=Nc4ccccc43)CC2)n1)c1cnc2ccccc2n1` (centres unmarked) [XLV] gave an EC50 ([1]; Homo sapiens, Huh-7, 48 h) of 7.56 µM.

With `O=C(NCc1ccccc1[N+](=O)[O-])c1csc(C2CCN(C(=O)Cc3c[nH]c4ccccc34)CC2)n1` [XL] the EC50 [2] was 22.9 µM, the EC50 ([1]; Huh-7) was 2.98 µM and the EC50 [3] was 9.01 µM. The EC50 [4] was 14.9 µM and the EC50 [5] was 23.8 µM.

Compound `Cn1nc(-c2cccs2)cc1NC(=O)c1csc(C2CCN(C(=O)c3ccccc3C(F)(F)F)CC2)n1` [XVIII] has an EC50 ([1]; Huh-7) of 13.4 µM.

Work on `Cc1nc(NC(=O)c2csc(C3CCN(C(=O)Cc4c[nH]c5ccccc45)CC3)n2)sc1C` [XVII] yielded an EC50 [2] of 23.5 µM, an EC50 [3] of 5.59 µM and an EC50 [4] of over 20 µM. For the same compound, the EC50 [5] was 18.9 µM.

`Cc1nc(C)c(C(=O)N2CCC(c3nc(C(=O)NC4C=C(c5cccs5)N=N4)cs3)CC2)s1` (centres unmarked) [XVI] was tested, and the EC50 [2] was 10.5 µM, the EC50 [3] was 7.99 µM and the EC50 [4] was over 20 µM. The EC50 [5] was over 20 µM.

With `COc1ccccc1C(=O)NNC(=O)c1csc(C2CCN(C(=O)CC3C=Nc4ccccc43)CC2)n1` (centres unmarked) [XXIII] the EC50 ([1]; Homo sapiens, Huh-7, 48 h) was 16.7 µM.

`Cc1nc(C)c(C(=O)N2CCC(c3nc(C(=O)Nc4cc(-c5ccccc5)nn4C)cs3)CC2)s1` [XXII] was tested, and the EC50 ([1]; Huh-7) was 5.4 µM.

`O=C(NC1CCN(Cc2ccccc2)C1)c1csc(C2CCN(C(=O)CC3C=Nc4ccccc43)CC2)n1` (centres unmarked) [XXIX] was tested, and the EC50 ([1]; Homo sapiens, Huh-7, 48 h) was 2.7 µM.

Compound `C#CCOC(=O)N1CCC(c2nc(C(=O)Nc3cc(-c4ccccc4)n[nH]3)cs2)CC1` [XXVIII] has an EC50 ([1]; Huh-7) of 2.27 µM.

Compound `COc1ccc(CN2CCN(C(=O)c3csc(C4CCN(C(=O)CC5C=Nc6ccccc65)CC4)n3)CC2)cc1` (centres unmarked) [XXVII] has an EC50 ([1]; Homo sapiens, Huh-7, 48 h) of 35.6 µM.

`Cc1ccc(OCC(=O)N2CCC(c3nc(C(=O)Nc4nccs4)cs3)CC2)cc1C` [XXV] was tested, and the EC50 ([1]; Homo sapiens, Huh-7, 48 h) was 5.8 µM.

Compound `CC(=O)c1cc2cc(NC(=O)c3csc(C4CCN(C(=O)CC5C=Nc6ccccc65)CC4)n3)ccc2o1` (centres unmarked) [XXXII] has an EC50 ([1]; Homo sapiens, Huh-7, 48 h) of 3.08 µM.

`COc1ccc(C(N)=O)cc1NC(=O)c1csc(C2CCN(C(=O)Cc3ccccc3Cl)CC2)n1` [XXXIV] gave an EC50 ([1]; Homo sapiens, Huh-7, 48 h) of 4.24 µM.

`COc1ccc(C(=O)N2CCC(c3nc(C(=O)Nc4cc(-c5cccs5)n[nH]4)cs3)CC2)c(OC)c1OC` [XXXIX] was tested, and the EC50 ([1]; Huh-7) was 2.19 µM.

`COc1cccc(CCNC(=O)c2csc(C3CCN(C(=O)CC4C=Nc5ccccc54)CC3)n2)c1` (centres unmarked) [XXXVIII] was tested, and the EC50 ([1]; Homo sapiens, Huh-7, 48 h) was 20.6 µM.

`Cc1cc(Cl)ccc1CNC(=O)c1csc(C2CCN(C(=O)CC3C=Nc4ccccc43)CC2)n1` (centres unmarked) [XXXVI] was tested, and the EC50 ([1]; Homo sapiens, Huh-7, 48 h) was 3.95 µM.

Work on `Cc1nc(C)c(C(=O)N2CCC(c3nc(C(=O)Nc4cc(-c5cccs5)nn4C)cs3)CC2)s1` [XXXV] yielded an EC50 ([1]; Homo sapiens, Huh-7, 48 h) of 3.5 µM.

Work on `C=CCSc1ncccc1C(=O)N1CCC(c2nc(C(=O)Nc3cc(C(C)(C)C)n[nH]3)cs2)CC1` [XXX] yielded an EC50 ([1]; Homo sapiens, Huh-7, 48 h) of 4.2 µM.

From EP1832586A1, “Thiazole-piperidine derivatives in treatment of diseases of liver and the pancreas” (Oridis Biomed Forschungs- und Entwicklungs GmbH, priority 2006, dated 2007)
